The target of assay [1] is Recombinant human Cbl-b (aa 36-427) (Homo sapiens, UniProt Q13191). In words: Cbl-b Biochemical Assay (TR-FRET). Particulars: read-out: TR-FRET hCbl-b IC50. On the technique in general: TR-FRET usually uses a lanthanide donor and a delayed reading to cut background.
In assay [2] the test system is Jurkat (clone E6-1) cells with NFAT luciferase reporter. Description: Jurkat reporter assay (NFAT Luciferase). The format is cell-based. For orientation: Reporter assays use an easily measured gene product as a stand-in for the process of interest.
For assay [3], the target named is T1, Recombinant human c-Cbl (aa 47-435) (Homo sapiens, UniProt P22681).
T1 sequence (P22681 47-435): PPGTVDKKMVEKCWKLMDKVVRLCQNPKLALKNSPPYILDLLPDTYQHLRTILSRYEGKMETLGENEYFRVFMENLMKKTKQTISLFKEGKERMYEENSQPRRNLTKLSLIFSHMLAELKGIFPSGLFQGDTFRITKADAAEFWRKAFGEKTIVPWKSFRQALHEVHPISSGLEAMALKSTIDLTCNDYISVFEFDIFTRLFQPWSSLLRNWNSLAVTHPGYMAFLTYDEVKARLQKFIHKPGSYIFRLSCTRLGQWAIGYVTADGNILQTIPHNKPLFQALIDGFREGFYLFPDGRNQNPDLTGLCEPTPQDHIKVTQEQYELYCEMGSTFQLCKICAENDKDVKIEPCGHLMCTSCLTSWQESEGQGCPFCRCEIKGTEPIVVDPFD
Description: c-Cbl Biochemical Assay (TR-FRET). Particulars: hc-Cbl Biochemical Assay (TR-FRET); read-out: TR-FRET hcCbl IC50.

[4] abbreviates: Homo sapiens, Jurkat NFAT luciferase reporter cells, anti-CD3 stimulation, 6 hr, read-out: Jurkat NFAT EC50.

Experimental findings from patent US20250163038A1, “CBL-B MODULATORS AND USES THEREOF” (Nimbus Clio, Inc., priority 2021, published 2025) are described below.

The structures appear in SMILES notation. Where a name gives a salt, the structure may show the parent alone. Read-outs that look alike come from different tables or passages of the source.

Recombinant human Cbl-b (aa 36-427), sequence (Q13191 36-427): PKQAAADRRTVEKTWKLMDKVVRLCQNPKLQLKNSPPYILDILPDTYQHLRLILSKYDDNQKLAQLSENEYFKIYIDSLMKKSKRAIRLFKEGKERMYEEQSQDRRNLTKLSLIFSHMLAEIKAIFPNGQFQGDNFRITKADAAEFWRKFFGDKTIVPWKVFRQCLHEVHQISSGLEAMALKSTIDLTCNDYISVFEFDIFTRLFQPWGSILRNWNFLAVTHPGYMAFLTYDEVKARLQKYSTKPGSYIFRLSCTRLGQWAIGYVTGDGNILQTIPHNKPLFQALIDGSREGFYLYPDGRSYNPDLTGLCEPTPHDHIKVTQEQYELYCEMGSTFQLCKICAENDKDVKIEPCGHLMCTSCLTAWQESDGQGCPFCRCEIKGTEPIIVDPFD

In general, IC50 refers to the concentration needed to halve the response being measured. As usually defined, the EC50 is the concentration at which the effect is half-maximal. Consider `Cn1cnnc1-c1cc(F)ccc1-c1cccc(-c2nc3cc(CNCC(C)(C)C#N)cc(C(F)(F)F)c3o2)c1` [DN-2, 3-(((2-(4′-fluoro-2′-(4-methyl-4H-1,2,4-triazol-3-yl)-[1,1′-biphenyl]-3-yl)-7-(trifluoromethyl)benzo[d]oxazol-5-yl)methyl)amino)-2,2-dimethylpropanenitrile], for which the IC50 in assay [1] and in assay [3] was below 200 nM throughout. In assay [2] (setting [4]), the EC50 lay in the range of 0.2 to 1 µM.
For `Cn1cnnc1-c1cc(F)ccc1-c1cccc(-c2nc3cc(CNC[C@H](O)C4CC4)cc(C(F)(F)F)c3o2)c1` (single isomer, unassigned) [DT-2], the IC50 in assay [1] and in assay [3] was below 200 nM throughout. The 50% effective concentration (EC50) in assay [2] (setting [4]) is below 0.2 µM.
`Cn1cnnc1-c1cc(F)ccc1-c1cccc(-c2nc3cc(CO)cc(C(F)(F)F)c3[nH]2)c1` [BJ-1, (2-(4′-Fluoro-2′-(4-methyl-4H-1,2,4-triazol-3-yl)-[1,1′-biphenyl]-3-yl)-7-(trifluoromethyl)-1H-benzo[d]imidazol-5-yl)methanol]: the IC50 is below 200 nM in assay [1] and 1000 to 10000 nM in assay [3]. Moreover, the concentration for a half-maximal effect (EC50) in assay [2] (setting [4]) was 1 to 10 µM.
Regarding `C[C@@H](c1cc(C(F)(F)F)c2oc(-c3cccc(C4(Cc5nncn5C)COC4)c3)nc2c1)N1CCC2(CC2)C1` [AAE-1, 5-[(1S)-1-{5-azaspiro[2.4]heptan-5-yl}ethyl]-2-(3-{3-[(4-methyl-1,2,4-triazol-3-yl)methyl]oxetan-3-yl}phenyl)-7-(trifluoromethyl)-1,3-benzoxazole], the IC50 in assay [1] and in assay [3] was below 200 nM each time. Further, the EC50 in assay [2] (setting [4]) fell in the range of 0.2 to 1 µM.
Consider `CN(Cc1cc(C(F)(F)F)c2oc(-c3cccc(-c4ccc(F)cc4-c4nncn4C)c3)nc2c1)CC(C)(C)O` [AP-2, 1-(((2-(4′-Fluoro-2′-(4-methyl-4H-1,2,4-triazol-3-yl)-[1,1′-biphenyl]-3-yl)-7-(trifluoromethyl)benzo[d]oxazol-5-yl)methyl)(methyl)amino)-2-methylpropan-2-ol], for which the results for the IC50 in assay [1] and in assay [3] were below 200 nM and 1000 to 10000 nM, respectively. The EC50 in assay [2] (setting [4]) is 0.2 to 1 µM.
Turning to `Cn1cnnc1-c1cc(F)ccc1-c1cccc(-c2nc3cc(CN[C@H]4CC[C@@H]4O)cc(C(F)(F)F)c3o2)c1` (single isomer, unassigned) [ADH-1], the half-maximal inhibitory concentration (IC50) in assay [1] and in assay [3] was below 200 nM in each case. In assay [2] (Jurkat NFAT luciferase reporter cells, anti-CD3 stimulation, 6 hr, read-out: Jurkat NFAT EC50), the EC50 was below 0.2 µM.
With `Cn1cnnc1-c1cc(F)ccc1-c1cccc(-c2nc3cc(CN[C@@H]4CCC[C@@H]4O)cc(C(C)(C)C)c3o2)c1` [EV-9, (1S,2R)-2-(((7-(tert-Butyl)-2-(4′-fluoro-2′-(4-methyl-4H-1,2,4-triazol-3-yl)-[1,1′-biphenyl]-3-yl)benzo[d]oxazol-5-yl)methyl)amino)cyclopentan-1-ol], the IC50 in assay [1] and in assay [3] was below 200 nM in each case. In addition, the concentration giving a half-maximal response (EC50) in assay [2] (setting [4]) is below 0.2 µM.
Turning to `Cn1cnnc1-c1cc(F)ccc1-c1cc(-c2nc3cc(CNCC4(F)CCC4)cc(F)c3o2)nc(C2CC2)c1` [AFJ-1, [(2-{6-Cyclopropyl-4-[4-fluoro-2-(4-methyl-1,2,4-triazol-3-yl)phenyl]pyridin-2-yl}-7-fluoro-1,3-benzoxazol-5-yl)methyl][(1-fluorocyclobutyl)methyl]amine], the half-inhibitory concentration (IC50) in assay [1] and in assay [3] was below 200 nM throughout. For the same compound, in assay [2] (setting [4]), the EC50 fell in the range of 0.2 to 1 µM.
Consider `COc1cc(CNCCOC(C)C)cc2nc(-c3cccc(-c4ccc(F)cc4-c4nncn4C)c3)oc12` [GE-2, N-((2-(4′-Fluoro-2′-(4-methyl-4H-1,2,4-triazol-3-yl)-[1,1′-biphenyl]-3-yl)-7-methoxybenzo[d]oxazol-5-yl)methyl)-2-isopropoxyethan-1-amine, formic Acid], for which the figures for the IC50 in assay [1] and in assay [3] were below 200 nM and 200 to 1000 nM, respectively. In addition, the EC50 in assay [2] (setting [4]) fell in the range of 1 to 10 µM.
Turning to `COCCNCc1cc(C(F)(F)F)c2oc(-c3cc(-c4ccc(F)cc4-c4nncn4C)cc(C4CC4)c3)nc2c1` [JT-1, N-((2-(5-Cyclopropyl-4′-fluoro-2′-(4-methyl-4H-1,2,4-triazol-3-yl)-[1,1′-biphenyl]-3-yl)-7-(trifluoromethyl)benzo[d]oxazol-5-yl)methyl)-2-methoxyethan-1-amine], the IC50 in assay [1] and in assay [3] was below 200 nM in each case. In addition, the EC50 in assay [2] (setting [4]) was below 0.2 µM.
As to `Cn1cnnc1-c1cc(F)ccc1-c1cc(-c2nc3cc(CN)cc(F)c3o2)nc(C2CC2)c1` [AHM-3, 1-(2-{6-cyclopropyl-4-[4-fluoro-2-(4-methyl-1,2,4-triazol-3-yl)phenyl]pyridin-2-yl}-7-fluoro-1,3-benzoxazol-5-yl)methanamine], the IC50 in assay [1] is below 200 nM; in assay [3] it was 200 to 1000 nM. For the same compound, the EC50 in assay [2] (Homo sapiens, Jurkat, 6 h, read-out: Jurkat NFAT EC50 (μM)) lay within 1 to 10 µM.
Regarding `Cn1cnnc1-c1cc(F)ccc1-c1cccc(-c2nc3cc(CNCC4(O)COC4)cc(C(F)(F)F)c3o2)c1` [AC-2, 3-((((2-(4′-Fluoro-2′-(4-methyl-4H-1,2,4-triazol-3-yl)-[1,1′-biphenyl]-3-yl)-7-(trifluoromethyl)benzo[d]oxazol-5-yl)methyl)amino)methyl)oxetan-3-ol], the results for the IC50 in assay [1] and in assay [3] were below 200 nM and 1000 to 10000 nM, respectively. The EC50 in assay [2] (setting [4]) lay within 0.2 to 1 µM.
Turning to `Cn1cnnc1-c1cc(F)ccc1-c1cccc(-c2nc3cc(CN[C@@H]4CCC[C@@H]4O)cc(Br)c3o2)c1` [ER-2, (1S,2R)-2-(((7-Bromo-2-(4′-fluoro-2′-(4-methyl-4H-1,2,4-triazol-3-yl)-[1,1′-biphenyl]-3-yl)benzo[d]oxazol-5-yl)methyl)amino)cyclopentan-1-ol], the half-inhibitory concentration (IC50) in assay [1] and in assay [3] was below 200 nM throughout. For the same compound, the EC50 in assay [2] (setting [4]) is below 0.2 µM.
Take `C[C@@H]1CCC[C@@H](NCc2cc(C(F)(F)F)c3oc(-c4cccc(-c5ccc(F)cc5-c5nncn5C)c4)nc3c2)C1` (racemic) [FV-3, rac-(1R,3R)—N-((2-(4′-fluoro-2′-(4-methyl-4H-1,2,4-triazol-3-yl)-[1,1′-biphenyl]-3-yl)-7-(trifluoromethyl)benzo[d]oxazol-5-yl)methyl)-3-methylcyclohexan-1-amine]: the half-maximal inhibitory concentration (IC50) in assay [1] and in assay [3] was below 200 nM in each case. For the same compound, the EC50 in assay [2] (setting [4]) fell in the range of 0.2 to 1 µM.
`CO[C@@H](C)CNCc1cc(C)c2oc(-c3cc(-c4ccc(F)cc4-c4nncn4C)cc(C4CC4)n3)nc2c1` [AHF-1, [(2-{6-cyclopropyl-4-[4-fluoro-2-(4-methyl-1,2,4-triazol-3-yl)phenyl]pyridin-2-yl}-7-methyl-1,3-benzoxazol-5-yl)methyl][(2S)-2-methoxypropyl]amine]: the concentration for half-maximal inhibition (IC50) in assay [1] and in assay [3] was below 200 nM in each case. Also, the concentration giving a half-maximal response (EC50) in assay [2] (setting [4]) was below 0.2 µM.
Consider `COCCNCc1cc(C(F)(F)F)c2oc(-c3cccc(-c4ccc(F)cc4-c4nncn4C)c3)nc2c1` [AA-2, N-((2-(4′-Fluoro-2′-(4-methyl-4H-1,2,4-triazol-3-yl)-[1,1′-biphenyl]-3-yl)-7-(trifluoromethyl)benzo[d]oxazol-5-yl)methyl)-2-methoxyethan-1-amine], for which the half-inhibitory concentration (IC50) was below 200 nM in assay [1] and 1000 to 10000 nM in assay [3]. Besides, the half-maximal effective concentration (EC50) in assay [2] (setting [4]) lay within 0.2 to 1 µM.
Turning to `Cn1cnnc1-c1cc(F)ccc1-c1cccc(-c2nc3cc(CO)cc(C(C)(F)F)c3o2)c1` [FF-6, (7-(1,1-Difluoroethyl)-2-(4′-fluoro-2′-(4-methyl-4H-1,2,4-triazol-3-yl)-[1,1′-biphenyl]-3-yl)benzo[d]oxazol-5-yl)methanol], the figures for the IC50 in assay [1] and in assay [3] were below 200 nM and 200 to 1000 nM, respectively. Also, in assay [2] (setting [4]), the concentration for a half-maximal effect (EC50) is 1 to 10 µM.
For `CN(Cc1cc(Cl)c2oc(-c3cccc(-c4ccc(F)cc4-c4nncn4C)c3)nc2c1)[C@@H]1CCC[C@@H]1O` [HS-3, (1S,2R)-2-(((7-Chloro-2-(4′-fluoro-2′-(4-methyl-4H-1,2,4-triazol-3-yl)-[1,1′-biphenyl]-3-yl)benzo[d]oxazol-5-yl)methyl)(methyl)amino)cyclopentan-1-ol], the IC50 in assay [1] and in assay [3] was below 200 nM in each case. Also, the EC50 in assay [2] (setting [4]) is below 0.2 µM.
In the case of `Cn1cnnc1-c1cc(F)ccc1-c1cccc(-c2nc3cc(CN[C@@H]4CCC[C@H]4O)cc(C(F)(F)F)c3[nH]2)c1` [BK-2, (1R,2R)-2-(((2-(4′-Fluoro-2′-(4-methyl-4H-1,2,4-triazol-3-yl)-[1,1′-biphenyl]-3-yl)-7-(trifluoromethyl)-1H-benzo[d]imidazol-5-yl)methyl)amino)cyclopentan-1-ol], the results for the IC50 in assay [1] and in assay [3] were below 200 nM and 1000 to 10000 nM, respectively. Also, in assay [2] (setting [4]), the concentration giving a half-maximal response (EC50) fell in the range of 1 to 10 µM.
The like results for `CC(NCC1(O)CCC1)c1cc(C(F)(F)F)c2oc(-c3cccc(-c4ccc(F)cc4-c4nncn4C)c3)nc2c1` (stereo not drawn) [EF-1, 1-(((1-(2-(4′-Fluoro-2′-(4-methyl-4H-1,2,4-triazol-3-yl)-[1,1′-biphenyl]-3-yl)-7-(trifluoromethyl)benzo[d]oxazol-5-yl)ethyl)amino)methyl)cyclobutan-1-ol, formate] were, in that order, below 200 nM, below 200 nM and below 0.2 µM.
Regarding `Cn1cnnc1-c1cc(F)ccc1-c1cccc(-c2cn3cc(CO)ccc3n2)c1` [FZ-5, (2-(4′-Fluoro-2′-(4-methyl-4H-1,2,4-triazol-3-yl)-[1,1′-biphenyl]-3-yl)imidazo[1,2-a]pyridin-6-yl)methanol], the IC50 in assay [1] is 1000 to 10000 nM; in assay [3], 10000 to 50000 nM. Besides, in assay [2] (setting [4]), the EC50 fell in the range of 10 to 50 µM.
